Reference: PMC8861115, “Characterization and structural analyses of a novel glycosyltransferase acting on the β-1,2-glucosidic linkages” (The Journal of Biological Chemistry, 2022)
Substitutions are numbered along the chain they refer to.

Tests used:
[1] = molecular target: T1, IaSGT (IALB_1185) (Ignavibacterium album, UniProt I0AIT9); assay: hexokinase/G6PDH thio-NAD+ coupled glucose release; assay type: biochemical; details: acceptor; donor Sop2 fixed 1 mM; pH 5.0, 37 °C
T1 construct: full length (no N-terminal signal peptide), his6-tag fusion from pET30a(+) NdeI/XhoI, E. coli BL21(DE3); homodimer
T1 sequence (I0AIT9 1-716): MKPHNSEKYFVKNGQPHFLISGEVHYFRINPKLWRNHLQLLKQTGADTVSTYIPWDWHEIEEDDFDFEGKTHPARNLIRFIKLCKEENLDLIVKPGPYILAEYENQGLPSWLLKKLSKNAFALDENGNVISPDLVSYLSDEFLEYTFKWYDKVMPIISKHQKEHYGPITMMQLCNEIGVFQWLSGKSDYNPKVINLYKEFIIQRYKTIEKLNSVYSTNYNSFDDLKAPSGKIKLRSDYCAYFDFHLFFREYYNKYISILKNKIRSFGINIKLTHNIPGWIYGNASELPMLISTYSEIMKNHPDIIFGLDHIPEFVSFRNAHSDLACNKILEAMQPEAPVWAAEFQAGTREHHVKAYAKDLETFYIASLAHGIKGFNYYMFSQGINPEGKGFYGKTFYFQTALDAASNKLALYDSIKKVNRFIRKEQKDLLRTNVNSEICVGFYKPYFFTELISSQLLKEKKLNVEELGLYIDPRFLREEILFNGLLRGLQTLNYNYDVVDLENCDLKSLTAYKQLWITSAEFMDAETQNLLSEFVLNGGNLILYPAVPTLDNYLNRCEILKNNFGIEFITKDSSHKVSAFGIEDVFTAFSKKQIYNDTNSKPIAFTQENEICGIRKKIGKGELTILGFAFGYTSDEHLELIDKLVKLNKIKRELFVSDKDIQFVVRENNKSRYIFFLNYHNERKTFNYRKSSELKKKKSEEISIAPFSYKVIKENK
Text: hexokinase/G6PDH thio-NAD+ coupled glucose release on IaSGT (IALB_1185)

[2] = molecular target: T2, IaSGT (IALB_1185) (Ignavibacterium album, UniProt I0AIT9, E343G); assay: X-ray crystal structure of complex; assay type: binding; details: subsites -1 and +1, subunit A only
T2 construct: full length (no N-terminal signal peptide), his6-tag fusion from pET30a(+) NdeI/XhoI, E. coli BL21(DE3); homodimer
T2 sequence (I0AIT9 1-716 E343G): T1 sequence (I0AIT9 1-716) with E343G

Question: For `N#C[C@H](O[C@@H]1O[C@H](CO[C@@H]2O[C@H](CO)[C@@H](O)[C@H](O)[C@H]2O)[C@@H](O)[C@H](O)[C@H]1O)c1ccccc1` [Amygdalin], which Km [1] is on record?
Answer: The Km was 150 ± 20 µM.

Question: With `OC[C@H]1NC[C@H](O)[C@@H](O)[C@@H]1O` [DNJ, 1-deoxynojirimycin] as the compound, how does the “X-ray crystal structure of complex” value [2] read?
Answer: Its value is “The electron densities of DNJ molecules were observed only in subunit A in the E343G mutant”.
